Source: patent US20080009418A1, “Selective Inhibitors” (Alchemia LTD., priority 2004, published 2008)

Columns and labels:
Human Melanocortin (MC3) = molecular target: T1, Human Melanocortin (MC3) (Homo sapiens, UniProt P41968); assay: Radioligand binding, human melanocortin MC3 membranes, FlashPlate, [125I]-NDP-αMSH; conditions: compound at 10 μM; [125I]-NDP-αMSH; 10 µM
T1 construct: purchased Perkin Elmer Biosignal
Procedure, shortened: (§1)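 Cloned human receptor membranes were coated onto FlashPlate wells and incubated with radioligand and compound (added from a 0.5 mM DMSO daughter plate) for 1 hour at room temperature in the dark. Scintillation counting gave percent inhibition, with DMSO defining total and reference ligand defining non-specific binding.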

Human opioid (ORL1) = molecular target: T2, Human opioid (ORL1) (Homo sapiens, UniProt P41146); assay: Radioligand binding, human opioid ORL1 membranes, FlashPlate, [125I]-Nociceptin; conditions: compound at 10 μM; [125I]-Nociceptin
T2 construct: purchased Perkin Elmer Biosignal
T2 sequence (P41146 whole entry): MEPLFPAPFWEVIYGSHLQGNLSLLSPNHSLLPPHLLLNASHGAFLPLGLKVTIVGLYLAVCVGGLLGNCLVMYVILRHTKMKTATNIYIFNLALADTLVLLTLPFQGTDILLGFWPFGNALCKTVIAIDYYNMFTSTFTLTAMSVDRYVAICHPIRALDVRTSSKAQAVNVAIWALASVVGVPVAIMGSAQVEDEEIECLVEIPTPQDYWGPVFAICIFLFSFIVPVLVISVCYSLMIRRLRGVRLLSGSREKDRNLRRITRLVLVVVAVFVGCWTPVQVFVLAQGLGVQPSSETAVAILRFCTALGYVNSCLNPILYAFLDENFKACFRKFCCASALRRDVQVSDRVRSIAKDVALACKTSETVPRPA
Procedure, shortened: as §1

[1] = molecular target: T3, Human neuropeptide Y (NPY-Y1) (Homo sapiens, UniProt P25929); assay: Radioligand binding, human neuropeptide Y NPY-Y1 membranes, FlashPlate, [125I]-PYY; conditions: compound at 10 μM; [125I]-PYY
T3 construct: purchased Perkin Elmer Biosignal
T3 sequence (P25929 1-384): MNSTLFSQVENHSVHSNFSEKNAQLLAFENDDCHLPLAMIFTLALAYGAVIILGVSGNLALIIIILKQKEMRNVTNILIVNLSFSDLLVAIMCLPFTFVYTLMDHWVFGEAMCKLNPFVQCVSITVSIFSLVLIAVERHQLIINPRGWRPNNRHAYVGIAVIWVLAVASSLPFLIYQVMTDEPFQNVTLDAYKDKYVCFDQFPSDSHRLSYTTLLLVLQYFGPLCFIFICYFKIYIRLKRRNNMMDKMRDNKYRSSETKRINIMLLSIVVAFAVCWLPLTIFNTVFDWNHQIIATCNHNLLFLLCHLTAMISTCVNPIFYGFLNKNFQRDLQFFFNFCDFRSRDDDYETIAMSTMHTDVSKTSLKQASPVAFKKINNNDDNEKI
Procedure, shortened: as §1

Human melanocortin (MC5) = molecular target: T4, Human melanocortin (MC5) (Homo sapiens, UniProt P33032); assay: Radioligand binding, human melanocortin MC5 membranes, FlashPlate, [125I]-NDP-αMSH; conditions: compound at 10 μM, [125I]-NDP-αMSH
T4 construct: purchased Perkin Elmer Biosignal
T4 sequence (P33032 whole entry): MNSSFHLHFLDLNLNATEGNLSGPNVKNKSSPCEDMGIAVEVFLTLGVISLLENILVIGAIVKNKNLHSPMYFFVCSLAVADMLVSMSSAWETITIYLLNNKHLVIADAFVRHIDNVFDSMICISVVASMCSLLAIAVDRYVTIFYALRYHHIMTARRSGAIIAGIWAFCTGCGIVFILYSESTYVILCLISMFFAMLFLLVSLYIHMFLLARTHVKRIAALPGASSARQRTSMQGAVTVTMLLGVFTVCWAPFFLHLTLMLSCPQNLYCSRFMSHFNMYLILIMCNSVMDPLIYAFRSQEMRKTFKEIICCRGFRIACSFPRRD
Procedure, shortened: as §1

[2] = molecular target: T5, Human melanin-concentrating hormone (MCH1) (Homo sapiens, UniProt Q99705); assay: Radioligand binding, human melanin-concentrating hormone MCH1 membranes, FlashPlate, [125I]-S36057; conditions: compound at 10 μM, [125I]-S36057
T5 construct: purchased Perkin Elmer Biosignal
T5 sequence (Q99705 whole entry): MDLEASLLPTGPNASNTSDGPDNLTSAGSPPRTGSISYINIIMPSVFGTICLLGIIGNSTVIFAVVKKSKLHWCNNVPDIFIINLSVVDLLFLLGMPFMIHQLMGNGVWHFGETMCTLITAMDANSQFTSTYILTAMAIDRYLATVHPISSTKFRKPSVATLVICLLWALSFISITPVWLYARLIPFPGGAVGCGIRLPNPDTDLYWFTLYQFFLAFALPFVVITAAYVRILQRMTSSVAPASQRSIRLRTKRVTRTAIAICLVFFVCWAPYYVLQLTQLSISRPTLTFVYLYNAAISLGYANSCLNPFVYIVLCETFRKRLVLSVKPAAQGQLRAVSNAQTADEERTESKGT
Procedure, shortened: as §1

Human μ-opioid (MOP) = molecular target: T6, Human μ-opioid (MOP) (Homo sapiens, UniProt P35372); assay: Radioligand binding, human μ-opioid (MOP) membranes, FlashPlate, [3H]-Naloxone; conditions: compound at 10 μM; [3H]-Naloxone
T6 construct: purchased Perkin Elmer Biosignal
T6 sequence (P35372 whole entry): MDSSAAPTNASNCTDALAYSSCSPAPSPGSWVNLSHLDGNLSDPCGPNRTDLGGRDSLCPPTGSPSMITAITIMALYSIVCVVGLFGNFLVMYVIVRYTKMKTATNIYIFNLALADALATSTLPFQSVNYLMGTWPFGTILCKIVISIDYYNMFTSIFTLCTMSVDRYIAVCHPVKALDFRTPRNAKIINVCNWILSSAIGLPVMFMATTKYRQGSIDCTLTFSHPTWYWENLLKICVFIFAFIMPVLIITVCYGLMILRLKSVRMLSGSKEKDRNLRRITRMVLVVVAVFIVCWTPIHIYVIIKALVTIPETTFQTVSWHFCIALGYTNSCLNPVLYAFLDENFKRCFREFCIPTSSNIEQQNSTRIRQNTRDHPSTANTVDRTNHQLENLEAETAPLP
Procedure, shortened: as §1

Human δ-opioid (DOP) = molecular target: T7, Human δ-opioid (DOP) (Homo sapiens, UniProt P41143); assay: Radioligand binding, human δ-opioid (DOP) membranes, FlashPlate, [3H]-Bremazocine; conditions: compound at 10 μM; [3H]-Bremazocine
T7 construct: purchased Perkin Elmer Biosignal
T7 sequence (P41143 whole entry): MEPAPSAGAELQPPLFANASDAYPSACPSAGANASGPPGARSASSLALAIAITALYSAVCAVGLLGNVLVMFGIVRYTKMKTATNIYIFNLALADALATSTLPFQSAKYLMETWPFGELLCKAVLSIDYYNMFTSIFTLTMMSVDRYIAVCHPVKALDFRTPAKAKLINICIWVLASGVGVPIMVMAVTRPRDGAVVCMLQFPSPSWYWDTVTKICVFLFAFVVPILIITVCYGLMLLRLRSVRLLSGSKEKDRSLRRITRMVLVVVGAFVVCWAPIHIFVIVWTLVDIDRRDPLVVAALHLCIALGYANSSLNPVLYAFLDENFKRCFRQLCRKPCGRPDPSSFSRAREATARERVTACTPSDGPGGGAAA
Procedure, shortened: as §1

Human Melanocortin (MC4) = molecular target: T8, Human Melanocortin (MC4) (Homo sapiens, UniProt P32245); assay: Radioligand binding, human melanocortin MC4 membranes, FlashPlate, [125I]-NDP-αMSH; conditions: compound at 10 μM; [125I]-NDP-αMSH; 10 µM
T8 construct: purchased Perkin Elmer Biosignal
T8 sequence (P32245 whole entry): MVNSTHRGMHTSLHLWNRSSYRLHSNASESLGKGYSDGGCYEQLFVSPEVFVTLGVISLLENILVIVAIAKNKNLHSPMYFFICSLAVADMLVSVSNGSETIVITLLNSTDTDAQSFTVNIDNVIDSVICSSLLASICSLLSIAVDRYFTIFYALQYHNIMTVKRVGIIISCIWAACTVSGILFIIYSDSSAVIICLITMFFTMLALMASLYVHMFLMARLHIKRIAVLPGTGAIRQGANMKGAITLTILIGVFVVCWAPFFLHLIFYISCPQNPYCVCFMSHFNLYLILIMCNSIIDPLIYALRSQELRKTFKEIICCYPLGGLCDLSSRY
Procedure, shortened: as §1

Human neurokinin (NK1) = molecular target: T9, Human neurokinin (NK1) (Homo sapiens, UniProt P25103); assay: Radioligand binding, human neurokinin NK1 membranes, filtration, [125I]-Substance P; conditions: compound at 10 μM; [125I]-Substance P
T9 construct: purchased Perkin Elmer Biosignal
T9 sequence (P25103 whole entry): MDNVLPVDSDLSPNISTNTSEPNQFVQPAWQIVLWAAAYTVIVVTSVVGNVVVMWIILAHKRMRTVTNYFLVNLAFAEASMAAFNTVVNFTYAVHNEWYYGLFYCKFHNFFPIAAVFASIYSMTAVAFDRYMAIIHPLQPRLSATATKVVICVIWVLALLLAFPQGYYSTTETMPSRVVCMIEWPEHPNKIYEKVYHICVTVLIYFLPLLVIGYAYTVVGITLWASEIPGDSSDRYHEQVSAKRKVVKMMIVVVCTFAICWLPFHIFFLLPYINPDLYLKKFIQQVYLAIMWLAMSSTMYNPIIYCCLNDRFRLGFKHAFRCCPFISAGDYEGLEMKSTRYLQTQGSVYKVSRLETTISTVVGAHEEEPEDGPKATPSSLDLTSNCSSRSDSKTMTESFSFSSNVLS
Procedure, shortened: (§2)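 Percent inhibition of radioligand binding measured on recombinant human membranes: NK1 with [125I]-Substance P, KOP with [3H]-Diprenorphine. Incubation 1 h at room temperature, then harvest onto 0.3% PEI-soaked filters, cold Tris-HCl pH 7.4 washes and scintillation counting; non-specific binding from reference ligand wells.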

Mouse urotensin (mUR2) = molecular target: T10, Mouse urotensin (mUR2) (Mus musculus, UniProt Q8VIH9); assay: Radioligand binding, mouse urotensin mUR2 membranes, FlashPlate, [125I]-Urotensin II; conditions: compound at 10 μM; [125I]-Urotensin II
T10 construct: purchased Perkin Elmer Biosignal
T10 sequence (Q8VIH9 1-385): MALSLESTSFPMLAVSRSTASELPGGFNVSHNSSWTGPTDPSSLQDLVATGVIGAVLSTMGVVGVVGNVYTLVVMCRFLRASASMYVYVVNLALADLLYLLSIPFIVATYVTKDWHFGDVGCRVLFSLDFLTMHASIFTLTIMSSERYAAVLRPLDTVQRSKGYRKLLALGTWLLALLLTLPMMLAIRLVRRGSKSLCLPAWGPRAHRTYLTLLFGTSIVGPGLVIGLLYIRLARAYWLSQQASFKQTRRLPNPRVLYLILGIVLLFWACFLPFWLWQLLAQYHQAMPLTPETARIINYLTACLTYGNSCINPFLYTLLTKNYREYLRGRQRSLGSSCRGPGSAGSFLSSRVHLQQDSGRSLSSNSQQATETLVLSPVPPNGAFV
Procedure, shortened: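 Cloned mouse urotensin (mUR2) receptor membranes from Perkin Elmer Biosignal were immobilized in FlashPlate microplates using a proprietary coating. Each well got 19.5 μl buffer, then 0.5 μl of DMSO, reference ligand, or compound. Adding 5 μl of [125I]-Urotensin II, diluted to 5× final concentration in binding buffer, started binding. Plates were sealed with TopSeal-A and incubated 1 hour at room temperature in the dark. Wells were counted for 30 seconds each on a TopCount after a 60-second delay, and percentage inhibition was calculated.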

Human κ-Opioid (KOP) = molecular target: T11, Human κ-Opioid (KOP) (Homo sapiens, UniProt P41145); assay: Radioligand binding, human κ-opioid (KOP) membranes, filtration, [3H]-Diprenorphine; conditions: compound at 10 μM; [3H]-Diprenorphine; 10 µM
T11 construct: purchased Perkin Elmer Biosignal
T11 sequence (P41145 whole entry): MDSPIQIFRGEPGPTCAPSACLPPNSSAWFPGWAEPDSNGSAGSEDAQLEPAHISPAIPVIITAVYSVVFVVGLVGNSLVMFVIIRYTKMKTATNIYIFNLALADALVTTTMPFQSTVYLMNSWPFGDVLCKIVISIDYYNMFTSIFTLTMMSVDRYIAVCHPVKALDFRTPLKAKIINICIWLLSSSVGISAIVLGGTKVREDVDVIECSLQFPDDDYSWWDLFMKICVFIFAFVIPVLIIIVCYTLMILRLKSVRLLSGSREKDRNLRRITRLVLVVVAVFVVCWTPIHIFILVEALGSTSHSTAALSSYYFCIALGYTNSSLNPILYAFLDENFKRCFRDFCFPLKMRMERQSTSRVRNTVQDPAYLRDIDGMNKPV
Procedure, shortened: as §2

T1 sequence (P41968 whole entry): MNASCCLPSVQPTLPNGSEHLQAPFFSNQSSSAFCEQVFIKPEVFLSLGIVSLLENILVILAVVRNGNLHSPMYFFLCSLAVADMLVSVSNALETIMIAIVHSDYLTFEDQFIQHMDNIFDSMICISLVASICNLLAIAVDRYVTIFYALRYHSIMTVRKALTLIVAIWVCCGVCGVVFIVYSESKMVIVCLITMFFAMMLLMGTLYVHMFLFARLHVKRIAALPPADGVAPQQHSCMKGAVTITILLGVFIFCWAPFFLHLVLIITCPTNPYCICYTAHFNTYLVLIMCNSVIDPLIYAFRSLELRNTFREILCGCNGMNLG

Compound | A3: inhibition of radioligand binding, human melanocortin (MC3) (Human Melanocortin (MC3)) | A10: inhibition of radioligand binding, human opioid (ORL1) (Human opioid (ORL1)) | A9: inhibition of radioligand binding, human neuropeptide Y (NPY-Y1) [1] | A5: inhibition of radioligand binding, human melanocortin (MC5) (Human melanocortin (MC5)) | A6: inhibition of radioligand binding, human melanin-concentrating hormone (MCH1) [2] | A7: inhibition of radioligand binding, human μ-opioid (MOP) (Human μ-opioid (MOP)) | A1: inhibition of radioligand binding, human δ-opioid (DOP) (Human δ-opioid (DOP)) | A4: inhibition of radioligand binding, human melanocortin (MC4) (Human Melanocortin (MC4)) | A8: inhibition of radioligand binding, human neurokinin (NK1) (Human neurokinin (NK1)) | A11: inhibition of radioligand binding, mouse urotensin (mUR2) (Mouse urotensin (mUR2)) | A2: inhibition of radioligand binding, human κ-opioid (KOP) (Human κ-Opioid (KOP)) | A5: inhibition of radioligand binding, human melanocortin (MC5) (Human melanocortin (MC5); 10 µM) | A6: inhibition of radioligand binding, human melanin-concentrating hormone (MCH1) ([2]; 10 µM)
N=C(N)NCCC(=O)N[C@H]1C(OCc2ccc(Cl)cc2)O[C@H](COCc2ccccc2)[C@@H](O)[C@@H]1OCc1ccc(Cl)cc1 (stereo partly shown) [compound 524] | − (“−” indicates less than 50% inhibition at 10 μM) | − (“−” indicates less than 50% inhibition at 10 μM) | − (“−” indicates less than 50% inhibition at 10 μM) | + (“+” indicates greater than 50% inhibition at 10 μM) | + (“+” indicates greater than 50% inhibition at 10 μM) | − (“−” indicates less than 50% inhibition at 10 μM) | − (“−” indicates less than 50% inhibition at 10 μM) | − (“−” indicates less than 50% inhibition at 10 μM) | + (“+” indicates greater than 50% inhibition at 10 μM) | − (“−” indicates less than 50% inhibition at 10 μM) | − (“−” indicates less than 50% inhibition at 10 μM) |  | 
N=C(N)NCCC(=O)N[C@H]1C(OCc2ccc(Cl)cc2)O[C@H](COCc2ccccc2)[C@@H](O)[C@@H]1OCc1ccc(Cl)cc1 (stereo partly shown) [compound 525] | + (“+” indicates greater than 50% inhibition at 10 μM) | − (“−” indicates less than 50% inhibition at 10 μM) | − (“−” indicates less than 50% inhibition at 10 μM) | + (“+” indicates greater than 50% inhibition at 10 μM) | + (“+” indicates greater than 50% inhibition at 10 μM) | − (“−” indicates less than 50% inhibition at 10 μM) | − (“−” indicates less than 50% inhibition at 10 μM) | + (“+” indicates greater than 50% inhibition at 10 μM) | + (“+” indicates greater than 50% inhibition at 10 μM) | − (“−” indicates less than 50% inhibition at 10 μM) | + (“+” indicates greater than 50% inhibition at 10 μM) |  | 
N=C(N)NCCC(=O)N[C@H]1C(OCc2ccc(Cl)cc2)O[C@H](COCc2ccc(Cl)cc2)[C@@H](O)[C@@H]1OCc1ccc(Cl)cc1 (stereo partly shown) [compound 526] | − (“−” indicates less than 50% inhibition at 10 μM) | − (“−” indicates less than 50% inhibition at 10 μM) | − (“−” indicates less than 50% inhibition at 10 μM) | + (“+” indicates greater than 50% inhibition at 10 μM) | + (“+” indicates greater than 50% inhibition at 10 μM) | − (“−” indicates less than 50% inhibition at 10 μM) | − (“−” indicates less than 50% inhibition at 10 μM) | − (“−” indicates less than 50% inhibition at 10 μM) | + (“+” indicates greater than 50% inhibition at 10 μM) | − (“−” indicates less than 50% inhibition at 10 μM) | − (“−” indicates less than 50% inhibition at 10 μM) |  | 
N=C(N)NCCC(=O)N[C@H]1C(OCc2ccc(Cl)cc2)O[C@H](COCc2ccc(Cl)cc2)[C@@H](O)[C@@H]1OCc1ccc(Cl)cc1 (stereo partly shown) [compound 527] | + (“+” indicates greater than 50% inhibition at 10 μM) | − (“−” indicates less than 50% inhibition at 10 μM) | − (“−” indicates less than 50% inhibition at 10 μM) | + (“+” indicates greater than 50% inhibition at 10 μM) | + (“+” indicates greater than 50% inhibition at 10 μM) | − (“−” indicates less than 50% inhibition at 10 μM) | − (“−” indicates less than 50% inhibition at 10 μM) | + (“+” indicates greater than 50% inhibition at 10 μM) | + (“+” indicates greater than 50% inhibition at 10 μM) | − (“−” indicates less than 50% inhibition at 10 μM) | + (“+” indicates greater than 50% inhibition at 10 μM) |  | 
N=C(N)NCCC(=O)N[C@H]1C(OCc2ccc(Cl)cc2)O[C@H](COCc2ccc3ccccc3c2)[C@@H](O)[C@@H]1OCc1ccc2ccccc2c1 (stereo partly shown) [compound 528] | − (“−” indicates less than 50% inhibition at 10 μM) | − (“−” indicates less than 50% inhibition at 10 μM) | − (“−” indicates less than 50% inhibition at 10 μM) |  |  | − (“−” indicates less than 50% inhibition at 10 μM) | − (“−” indicates less than 50% inhibition at 10 μM) | − (“−” indicates less than 50% inhibition at 10 μM) | + (“+” indicates greater than 50% inhibition at 10 μM) | − (“−” indicates less than 50% inhibition at 10 μM) | − (“−” indicates less than 50% inhibition at 10 μM) | − (“−” indicates less than 50% inhibition at 10 μM) | − (“−” indicates less than 50% inhibition at 10 μM)
